Experimental data reported in article PMC5934630 (2018).

Assays:
[1] = test system: MA-L (DNA, aptamer) CAGAACTTACGACTCAGGCATTTTGCCGGGTAACGAAGTTACTGTCGTAAG; assay: ITC; conditions: Na+ 20 mM, Mg2+ 0.5 mM
[2] = test system: MA (DNA, aptamer) CTTACGACTCAGGCATTTTGCCGGGTAACGAAGTTACTGTCGTAAG; assay: ITC; conditions: Na+ 20 mM, Mg2+ 0.5 mM

**Q.** For `CCCC(C(=O)c1ccc2c(c1)OCO2)N1CCCC1` (centres unmarked), which KD [1] is on record?
**A.** 6.2 µM

**Q.** What about the KD [2] of the same compound?
**A.** 6.1 ± 0.2 µM
